Paper PMC12431657, “Discovery and mechanistic insights of dibenzoylmethane as a broad spectrum inhibitor of coronavirus” (PLOS Pathogens, 2025)
Values joined by “and” are separate entries in the source; they are usually repeats but may differ in a detail not shown here. Identical values can stand only once. Like-named read-outs stand apart in the source and are kept apart here.

How the values were obtained:
HCoV-OC43 [1] = test: Cytokine gene expression in brains and spinal cords of infected mice; assay type: in vivo, BALB/c suckling mice; conditions: for CCL2 gene expression / CXCL10 gene expression / IL1B gene expression / IL6 gene expression / TNF gene expression: one value per animal
IFN signalling = test: IFNB1 and IFN-stimulated gene expression (qPCR); assay type: cell-based
HCoV-OC43 [2] = test: Antiviral activity of DBM in the presence of IFN signalling suppressants; assay type: cell-based
Experimental: Fig 6 DBM-mediated downregulation of caspase-6 restores IFN signalling suppressed by the coronavirus nucleocapsid protein. A) Intracellular levels of HCoV-OC43 nucleocapsid proteins and caspase-6 in HCoV-OC43-infected cells treated with serially diluted DBM or Z-VEID-FMK. Cells were pretreated with gradient-diluted DBM or Z-VEID-FMK prior to viral infection. B) Inhibitory effects of DBM against HCoV-OC43 and EV71. Cells were pre-treated with gradient-diluted DBM for 1 hour before inoculated with HCoV-OC43 or EV71, respectively. C) Attenuation of antiviral effects of DBM in IFN signalling-deficient cell lines. HEK293T-AT and Vero E6 cells were pre-treated with gradient-diluted DBM for 1 hour before infection. […] Cells were pretreated with gradient-diluted DBM or Z-VEID-FMK for 24 h, and then transfected with coronaviruses nucleocapsid proteins expression plasmid, and after 16 h of transfection, cells were treated with DMSO or STS. E) DBM alleviated the suppression of IFNB1 expression induced by coronaviruses nucleocapsid proteins and caspase-6. Cells were pretreated with DMSO or DBM for 24 h, subsequently, transfected with Poly(I:C) and plasmids. F) Impact of IFN signalling suppressants on the antiviral activity of DBM. Cells were pretreated with DMSO, Ruxolitinib or IFN alpha-IFNAR-IN-1 hydrochloride, respectively, for 1 hour. Subsequently, a gradient dilution of DBM was added to the medium, and then HCoV-OC43 was inoculated into the cells. Data were statistically analysed with Student’s T test. *: p ≤ 0.05, **: p ≤ 0.01, ***: p ≤ 0.001, ****: p ≤ 0.0001; ns, not significant. The experiments were repeated three times independently with similar results.
On the basis of this finding, we hypothesized that DBM downregulates caspase-6, reduces the cleavage of nucleocapsid proteins, and thereby enhances IFN signalling to inhibit viral replication. To test this hypothesis, we incubated cells transfected with plasmids expressing coronavirus nucleocapsid proteins in the presence or absence of DBM or Z-VEID-FMK. […] As the reduction in cleaved nucleocapsid protein fragments could theoretically […] IFN signalling, we sought to investigate the relationship between DBM treatment and IFN signalling. To this end, we further transfected cells with plasmids expressing both caspase-6 and coronavirus nucleocapsid proteins, and subsequently incubated the cells with or without DBM. […] Whereas the other two apoptosis-executing caspases, caspase-3 and caspase-7, could not inhibit IFN signalling in a similar system (S8C Fig). Furthermore, we examined the expression of IFNB1 and its downstream IFN-stimulated genes following DBM treatment in the context of HCoV-OC43 infection (S8D and S8E Fig).

HCoV-229E = test: Antiviral activity in vitro, qRT-PCR, HCoV-229E in MRC-5 cells; assay type: cell-based; conditions: for HCoV-229E, MRC-5: inhibition at the concentration (Fig2B): replicates
enterovirus EV71 = assay type: cell-based
caspase-6 = target: T1, caspase-6 (Homo sapiens, UniProt P55212); assay type: cell-based
T1 construct: endogenous in cells
T1 sequence (P55212 24-293): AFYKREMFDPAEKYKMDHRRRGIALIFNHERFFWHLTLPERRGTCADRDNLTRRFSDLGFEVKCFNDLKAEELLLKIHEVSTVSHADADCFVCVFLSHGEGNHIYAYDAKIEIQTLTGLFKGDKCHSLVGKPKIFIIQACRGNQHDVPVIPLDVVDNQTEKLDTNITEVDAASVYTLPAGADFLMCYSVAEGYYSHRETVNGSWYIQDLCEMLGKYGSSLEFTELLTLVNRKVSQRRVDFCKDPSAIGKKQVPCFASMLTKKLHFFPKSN

For `O=C(CC(=O)c1ccccc1)c1ccccc1` [DBM, dibenzoylmethane], the CCL2 gene expression (HCoV-OC43 [1]; BRAIN, DBM 100 mpk) was 1.51 and 1.54 and 1.00 and 1.20 and 1.62 and 1.74, the CXCL10 gene expression (HCoV-OC43 [1]; BRAIN, DBM 100 mpk) was 2.90 and 3.33 (2×) and 2.35 and 2.81 and 3.27 and the IL1B gene expression (HCoV-OC43 [1]; BRAIN, DBM 100 mpk) was 1.23 and 1.14 (2×) and 0.87 and 0.89 and 1.66. For the same molecule, the IL6 gene expression (HCoV-OC43 [1]; BRAIN, DBM 100 mpk) was 0.95 and 1.15 and 0.67 and 0.94 and 1.52 and 1.33, the TNF gene expression (HCoV-OC43 [1]; BRAIN, DBM 100 mpk) was 1.36 (2×) and 0.92 and 0.88 and 1.72 and 1.28 and the CCL2 gene expression (HCoV-OC43 [1]; BRAIN, DBM 200 mpk) was 1.46 and -0.88 and 0.68 and 1.08 and 1.88. The CXCL10 gene expression (HCoV-OC43 [1]; BRAIN, DBM 200 mpk) was 3.15 and -0.32 and 2.05 and 2.44 and 3.30, the IL1B gene expression (HCoV-OC43 [1]; BRAIN, DBM 200 mpk) was 1.27 and -1.00 and 0.43 and 0.66 and 1.46 and the IL6 gene expression (HCoV-OC43 [1]; BRAIN, DBM 200 mpk) was 1.26 and -0.71 and 0.30 and 0.34 and 1.23. The TNF gene expression (HCoV-OC43 [1]; BRAIN, DBM 200 mpk) was 1.14 and -1.10 and 0.49 and 0.84 and 1.31, the CCL2 gene expression (HCoV-OC43 [1]; BRAIN, DBM 500 mpk) was 1.19 and 0.29 and 0.89 and 1.43 and the CXCL10 gene expression (HCoV-OC43 [1]; BRAIN, DBM 500 mpk) was 2.39 and 1.30 and 1.07 and 2.91. The IL1B gene expression (HCoV-OC43 [1]; BRAIN, DBM 500 mpk) was 1.46 and 0.54 and 0.85 and 1.71, the IL6 gene expression (HCoV-OC43 [1]; BRAIN, DBM 500 mpk) was 0.93 and 0.71 and 0.92 and 1.17 and the TNF gene expression (HCoV-OC43 [1]; BRAIN, DBM 500 mpk) was 1.05 and 0.22 and 0.74 and 1.31. The “inflammation (cytokine gene expression) in the brain and spinal cord” value (HCoV-OC43 [1]; CCL2, CXCL10, IL-1β, IL-6, TNF-α, 5 dpi) was “dramatically reduced inflammation”, the CCL2 gene expression (HCoV-OC43 [1]; SPINAL CORD, DBM 100 mpk) was 0.10 and -0.50 and -0.53 and -0.21 and -0.06 and -0.89 and the CXCL10 gene expression (HCoV-OC43 [1]; SPINAL CORD, DBM 100 mpk) was 2.03 and 1.48 and 0.34 and 0.55 and 1.02 and 0.66. The IL1B gene expression (HCoV-OC43 [1]; SPINAL CORD, DBM 100 mpk) was -0.76 and -1.28 and -0.98 and -0.97 and -0.64 and -1.78, the IL6 gene expression (HCoV-OC43 [1]; SPINAL CORD, DBM 100 mpk) was 1.39 and -0.72 and 0.41 and 1.02 and 0.87 and 0.47 and the TNF gene expression (HCoV-OC43 [1]; SPINAL CORD, DBM 100 mpk) was 0.47 and -0.10 and -0.18 and 0.26 and 0.80 and -0.63. The CCL2 gene expression (HCoV-OC43 [1]; SPINAL CORD, DBM 200 mpk) was -0.12 and -1.42 and -0.38 and -0.65 and 0.03, the CXCL10 gene expression (HCoV-OC43 [1]; SPINAL CORD, DBM 200 mpk) was 1.47 and -1.58 and 0.55 and 0.23 and 1.42 and the IL1B gene expression (HCoV-OC43 [1]; SPINAL CORD, DBM 200 mpk) was -0.83 and -1.94 and -0.93 and -0.47 and -0.26. The IL6 gene expression (HCoV-OC43 [1]; SPINAL CORD, DBM 200 mpk) was 0.59 and -0.46 and 0.79 and 0.02 and 0.49, the TNF gene expression (HCoV-OC43 [1]; SPINAL CORD, DBM 200 mpk) was -0.40 and -0.33 and -1.12 and -0.23 and 0.63 and the CCL2 gene expression (HCoV-OC43 [1]; SPINAL CORD, DBM 500 mpk) was 2.46 and 1.15 and -0.63 and 0.95. The CXCL10 gene expression (HCoV-OC43 [1]; SPINAL CORD, DBM 500 mpk) was 3.10 and 2.34 and 0.15 and 1.92, the IL1B gene expression (HCoV-OC43 [1]; SPINAL CORD, DBM 500 mpk) was 2.44 and 0.22 and -1.51 and 0.43 and the IL6 gene expression (HCoV-OC43 [1]; SPINAL CORD, DBM 500 mpk) was 3.07 and 2.18 and -0.81 and 1.64. For the same molecule, the TNF gene expression (HCoV-OC43 [1]; SPINAL CORD, DBM 500 mpk) was 3.77 and 1.80 and -0.57 and 1.44, the IFITM3 expression (IFN signalling) was 1.19 and 1.66 and 1.36 and the IFNB1 expression (IFN signalling) was 6.09 and 4.34 and 4.64. For the same molecule, the OAS1 expression (IFN signalling) was 1.74 and 2.26 and 1.65, the “suppression of IFN signalling by caspase-6 and nucleocapsid proteins (IFNB1, ISGs)” value (IFN signalling) was “reversed the suppression of IFN signalling” and the “IFN signalling in HCoV-OC43-infected cells” value (IFN signalling; IFNB1 and ISG mRNA) was “enhanced IFN signalling”. The “Viral RNA copies (Fig6F)” value (HCoV-OC43 [2]; DBM 0.06, with DMSO) was 8575323 and 7173199 and 8361273, the “Viral RNA copies (Fig6F)” value (HCoV-OC43 [2]; DBM 0.06, with IFNi) was 714000 and 1370000 and 1200000 and the “Viral RNA copies (Fig6F)” value (HCoV-OC43 [2]; DBM 0.19, with DMSO) was 4042565 and 5441926 and 4875856. The “Viral RNA copies (Fig6F)” value (HCoV-OC43 [2]; DBM 0.19, with IFNi) was 1160000 and 961000 and 754000, the “Viral RNA copies (Fig6F)” value (HCoV-OC43 [2]; DBM 0.19, with RUX) was 1920000 and 2400000 and 1530000 and the “Viral RNA copies (Fig6F)” value (HCoV-OC43 [2]; DBM 0.56, with DMSO) was 380096 and 713734 and 725626. For the same molecule, the “Viral RNA copies (Fig6F)” value (HCoV-OC43 [2]; DBM 0.56, with IFNi) was 1150000 and 922000 and 1030000, the “Viral RNA copies (Fig6F)” value (HCoV-OC43 [2]; DBM 0.56, with RUX) was 1380000 and 2020000 and 2160000 and the “Viral RNA copies (Fig6F)” value (HCoV-OC43 [2]; DBM 1.67, with DMSO) was 91512 and 73409 and 91292. The “Viral RNA copies (Fig6F)” value (HCoV-OC43 [2]; DBM 1.67, with IFNi) was 807000 and 1340000, the “Viral RNA copies (Fig6F)” value (HCoV-OC43 [2]; DBM 1.67, with RUX) was 2040000 and 3700000 and the “Viral RNA copies (Fig6F)” value (HCoV-OC43 [2]; DBM 5.00, with DMSO) was 87392 and 81273 and 92455. For the same molecule, the “Viral RNA copies (Fig6F)” value (HCoV-OC43 [2]; DBM 5.00, with IFNi) was 1300000 and 976000 and 920000, the “Viral RNA copies (Fig6F)” value (HCoV-OC43 [2]; DBM 5.00, with RUX) was 1880000 and 1760000 and 2040000 and the “antiviral activity of DBM, cells pretreated with IFN alpha-IFNAR-IN-1 hydrochloride” value (HCoV-OC43 [2]; HCoV-OC43) was “markedly reduced”. For the same molecule, the “antiviral activity of DBM, cells pretreated with ruxolitinib” value (HCoV-OC43 [2]; HCoV-OC43) was “markedly reduced”, the EC50 (HCoV-229E; Human coronavirus 229E, MRC5, 24 h, read-out: EC50 HCoV-229E (MRC-5)) was 700 nM and the “HCoV-229E, MRC-5: inhibition at the concentration (Fig2B)” value (“HCoV-229E, MRC-5: inhibition” for short) (HCoV-229E; conc. 0.1 (unit not given)) was 0.8 and 1.1 and 0.3. For the same molecule, the “HCoV-229E, MRC-5: inhibition” value (HCoV-229E; conc. 0.2 (unit not given)) was 1.4 and -2.2 and 0.6, the “HCoV-229E, MRC-5: inhibition” value (HCoV-229E; conc. 0.7 (unit not given)) was 17.4 and 32.7 and 56.6 and the “HCoV-229E, MRC-5: inhibition” value (HCoV-229E; conc. 2.2 (unit not given)) was 69.7 and 42.7 and 53.8. The “HCoV-229E, MRC-5: inhibition” value (HCoV-229E; conc. 6.7 (unit not given)) was 86.0 and 92.7 and 89.8, the “HCoV-229E, MRC-5: inhibition” value (HCoV-229E; conc. 20.0 (unit not given)) was 94.3 and 95.3 and 95.9 and the “antiviral activity against EV71” value (enterovirus EV71) was “no antiviral activity”. For the same molecule, the “activity of caspase-6 in treated cells” value (caspase-6) was “decrease in the activity of caspase-6”, the “Caspase-6 activity (Fig5J)” value (caspase-6; time point 0, replicates) was 8.2 and 8.1 and 9.0 and the “Caspase-6 activity (Fig5J)” value (caspase-6; time point 2, replicates) was 11.9 and 12.2 and 11.5. For the same molecule, the “Caspase-6 activity (Fig5J)” value (caspase-6; time point 4, replicates) was 16.7 and 15.6 and 16.4, the “Caspase-6 activity (Fig5J)” value (caspase-6; time point 6, replicates) was 12.2 and 13.5 and 13.6 and the “Caspase-6 activity (Fig5J)” value (caspase-6; time point 8, replicates) was 13.0 and 12.4 and 9.9.
